Experimental data from PMC11642016 (International Journal of Molecular Sciences, 2024).
Several values for one entry are separate records, joined by “and”; a condition that tells them apart may be missing. Equal values may be shown once. Read-outs that look alike come from different tables or passages of the source.

How the values were obtained:
[1] = test system: PANC-1, Fadu, A2058 and EBC-1 cell lines; parameters: method as in PMID 35455465; settings: 10 µM; cited from earlier work
PANC-1 and A2058 cells = test system: PANC-1 and A2058 cells; parameters: method as in PMID 35455465; settings: 24 h exposure time; cited from earlier work
Fadu cells = assay: CellTiter-Glo luminescent cell viability assay, Fadu; settings: for viability at 2.8 µM: read-out: Cell Viability (% of Control) 2.8 µM, Fadu; for viability at 2.8 µM / viability at 8.3 µM / viability at 25 µM: mean ± SD, n = 2; for viability at 8.3 µM: read-out: Cell Viability (% of Control) 8.3 µM, Fadu; for viability at 25 µM: read-out: Cell Viability (% of Control) 25 µM, Fadu
[2] = test system: non-tumorous primary fibroblast cells; assay: CellTiter-Glo luminescent cell viability assay, primary fibroblasts; settings: for Primer fibroblast Cell viability (% of controll): dose–response, individual replicates
[3] = as above; settings: human, primary skin fibroblasts (non-tumorous), Primer fibroblast Cell viability (% of controll), 72 h, dose–response, individual replicates
PANC-1 cells = assay: CellTiter-Glo luminescent cell viability assay, PANC-1; settings: for viability at 2.8 µM: read-out: Cell Viability (% of Control) 2.8 µM, PANC-1; for viability at 2.8 µM / viability at 8.3 µM / viability at 25 µM: mean ± SD, n = 2; for viability at 8.3 µM: read-out: Cell Viability (% of Control) 8.3 µM, PANC-1; for viability at 25 µM: read-out: Cell Viability (% of Control) 25 µM, PANC-1
PANC-1 and Fadu cells = assay: CellTiter-Glo viability, statements covering both cancer cell lines; assay type: cell-based, human; settings: Homo sapiens; 25 µM; in either of the cancer cell lines; read-out: drop in viability at 25 µM
Description: The effects of the synthesized compounds on cell viability were measured using the CellTiter-Glo® luminescent cell viability assay (Promega, Madison, WI, USA), according to the manufacturer’s instructions. […] After seeding, cells were incubated for a further 48 h before treatment. Cells were treated with the compounds for 72 h. […] After treatment, the luminescence signal was recorded using a microplate reader (BioTek Synergy 2 Multi-Mode Reader, BioTek, Winooski, VT, USA).

[4] = 1 μM, 72 h, dose–response, individual replicates
[5] = 1.5 μM, 72 h, dose–response, individual replicates
[6] = 2.3 μM, 72 h, dose–response, individual replicates
[7] = 3.4 μM, 72 h, dose–response, individual replicates
[8] = 5.1 μM, 72 h, dose–response, individual replicates
[9] = 7.7 μM, 72 h, dose–response, individual replicates
[10] = 17.3 μM, 72 h, dose–response, individual replicates
[11] = 26 μM, 72 h, dose–response, individual replicates
[12] = Homo sapiens, FaDu, 72 h, 72 h, first-set screening
[13] = Homo sapiens, FaDu, 72 h, 72 h, second-set screening
[14] = Homo sapiens, PANC-1, 72 h, 72 h, first-set screening
[15] = Homo sapiens, PANC-1, 72 h, 72 h, second-set screening

NCC#Cc1ccc(CN2C(=O)C3=C(CCN(Cc4ccc(-n5cc(-c6ccccc6)nn5)cc4)C3)N3CCN=C23)cc1 [I/B, reference compound]
viable cells after treatment in colony formation assays [1]: no viable cells could be observed
apoptosis induction (PANC-1 and A2058 cells): far more efficient in apoptosis induction than ONC201
Fadu Cell viability (% of controll) (Fadu cells; [4]): 116 % of controll
Fadu Cell viability (% of controll) (Fadu cells; [5]): 108 % of controll and 114 % of controll
Fadu Cell viability (% of controll) (Fadu cells; [6]): 112 % of controll
Fadu Cell viability (% of controll) (Fadu cells; [7]): 112 % of controll
Fadu Cell viability (% of controll) (Fadu cells; [8]): 107 % of controll
Fadu Cell viability (% of controll) (Fadu cells; [9]): 100 % of controll and 97 % of controll
Fadu Cell viability (% of controll) (Fadu cells; [10]): 0 % of controll
Fadu Cell viability (% of controll) (Fadu cells; [11]): 0 % of controll
viability at 2.8 µM (Fadu cells; [12]): 112 ± 7%
viability at 2.8 µM (Fadu cells; [13]): 112 ± 7%
viability at 8.3 µM (Fadu cells; [12]): 103 ± 6%
viability at 8.3 µM (Fadu cells; [13]): 103 ± 6%
viability at 25 µM (Fadu cells; [12]): 0%
viability at 25 µM (Fadu cells; [13]): 0%
viability at 0.7 µM (Fadu cells; Homo sapiens, FaDu, 72 h, read-out: Fadu Cell viability (% of controll), 0.7 μM, 72 h, dose–response, individual replicates): 106%
viability at 1 µM (Fadu cells; Homo sapiens, FaDu, 72 h, read-out: Fadu Cell viability (% of controll), 1 μM, 72 h, dose–response, individual replicates): 112%
viability at 1.5 µM (Fadu cells; Homo sapiens, FaDu, 72 h, read-out: Fadu Cell viability (% of controll), 1.5 μM, 72 h, dose–response, individual replicates): 109%
viability at 2.3 µM (Fadu cells; Homo sapiens, FaDu, 72 h, read-out: Fadu Cell viability (% of controll), 2.3 μM, 72 h, dose–response, individual replicates): 110%
viability at 3.4 µM (Fadu cells; Homo sapiens, FaDu, 72 h, read-out: Fadu Cell viability (% of controll), 3.4 μM, 72 h, dose–response, individual replicates): 105%
viability at 5.1 µM (Fadu cells; Homo sapiens, FaDu, 72 h, read-out: Fadu Cell viability (% of controll), 5.1 μM, 72 h, dose–response, individual replicates): 104%
viability at 7.7 µM (Fadu cells; Homo sapiens, FaDu, 72 h, read-out: Fadu Cell viability (% of controll), 7.7 μM, 72 h, dose–response, individual replicates): 93%
viability at 17.3 µM (Fadu cells; Homo sapiens, FaDu, 72 h, read-out: Fadu Cell viability (% of controll), 17.3 μM, 72 h, dose–response, individual replicates): 0%
viability at 26 µM (Fadu cells; Homo sapiens, FaDu, 72 h, read-out: Fadu Cell viability (% of controll), 26 μM, 72 h, dose–response, individual replicates): 0%
IC50 (Fadu cells; Homo sapiens, FaDu, 72 h, read-out: IC50 Value ± SEM Fadu, 72 h treatment, best-fit values, n = 3): 10.3 ± 0.17 µM
IC50 (Fadu cells; Homo sapiens, FaDu, read-out: Fadu IC50 values, Mean, mean of independently fitted replicate IC50 values (Supplement S.6)): 10.4 µM
IC50 (Fadu cells; Homo sapiens, FaDu, read-out: Fadu IC50 values, individual replicates n1-n3, IC50 independently determined for each replicate measurement (Supplement S.6)): 11 µM
Selectivity Index (SI) Fibroblast/Fadu (Fadu cells; ratio of mean best-fit IC50 for primary fibroblasts and best-fit IC50 for Fadu): 1.1
IC50 (Fadu cells; read-out: Fadu IC50 values, individual replicates n1-n3, IC50 independently determined for each replicate measurement (Supplement S.6)): 9.91 µM and 10.2 µM
Primer fibroblast Cell viability (% of controll) ([2]; 0.7 μM, 72 h): 98 % of controll and 97 % of controll
Primer fibroblast Cell viability (% of controll) ([2]; 1.5 μM, 72 h): 108 % of controll and 98 % of controll
Primer fibroblast Cell viability (% of controll) ([2]; 2.3 μM, 72 h): 107 % of controll and 98 % of controll
Primer fibroblast Cell viability (% of controll) ([2]; 3.4 μM, 72 h): 109 % of controll and 98 % of controll
Primer fibroblast Cell viability (% of controll) ([2]; 5.1 μM, 72 h): 110 % of controll and 98 % of controll
Primer fibroblast Cell viability (% of controll) ([2]; 7.7 μM, 72 h): 107 % of controll
Primer fibroblast Cell viability (% of controll) ([2]; 17.3 μM, 72 h): 0 % of controll
Primer fibroblast Cell viability (% of controll) ([2]; 26 μM, 72 h): 0 % of controll
IC50 ([2]; Homo sapiens, Fibroblast, 72 h, read-out: IC50 Value ± SEM Primary Fibroblast, 72 h treatment, best-fit values, n = 3): 11 ± 0.65 µM
IC50 ([2]; Homo sapiens, Fibroblast, read-out: Primary fibroblast IC50 values, Mean, mean of independently fitted replicate IC50 values (Supplement S.6), ONC201 value mathematically estimated from inflection point): 11.2 µM
IC50 ([2]; Homo sapiens, Fibroblast, read-out: Primary fibroblast IC50 values, individual replicates n1-n3, IC50 independently determined for each replicate (Supplement S.6), ONC201 value mathematically estimated from inflection point, viability stayed above 50%): 11.1 µM
IC50 ([2]; read-out: Primary fibroblast IC50 values, individual replicates n1-n3, IC50 independently determined for each replicate (Supplement S.6), ONC201 value mathematically estimated from inflection point, viability stayed above 50%): 11.1 µM and 11.4 µM
viability at 72 h, 0.7 µM ([3]; 0.7 μM): 93%
viability at 72 h, 1 µM ([3]; 1 μM): 99%
viability at 72 h, 1.5 µM ([3]; 1.5 μM): 105%
viability at 72 h, 2.3 µM ([3]; 2.3 μM): 100%
viability at 72 h, 3.4 µM ([3]; 3.4 μM): 101%
viability at 72 h, 5.1 µM ([3]; 5.1 μM): 104%
viability at 72 h, 7.7 µM ([3]; 7.7 μM): 92%
viability at 72 h, 17.3 µM ([3]; 17.3 μM): 0%
viability at 72 h, 26 µM ([3]; 26 μM): 0%
PANC-1 Cell viability (% of controll) (PANC-1 cells; 0.7 μM, 72 h, dose–response, individual replicates): 106 % of controll and 104 % of controll
PANC-1 Cell viability (% of controll) (PANC-1 cells; [4]): 106 % of controll and 107 % of controll
PANC-1 Cell viability (% of controll) (PANC-1 cells; [5]): 111 % of controll
PANC-1 Cell viability (% of controll) (PANC-1 cells; [6]): 113 % of controll
PANC-1 Cell viability (% of controll) (PANC-1 cells; [7]): 113 % of controll
PANC-1 Cell viability (% of controll) (PANC-1 cells; [8]): 109 % of controll and 116 % of controll
PANC-1 Cell viability (% of controll) (PANC-1 cells; [9]): 72 % of controll and 90 % of controll
PANC-1 Cell viability (% of controll) (PANC-1 cells; [10]): 0 % of controll
PANC-1 Cell viability (% of controll) (PANC-1 cells; [11]): 0 % of controll
viability at 2.8 µM (PANC-1 cells; [14]): 113 ± 4%
viability at 2.8 µM (PANC-1 cells; [15]): 113 ± 4%
viability at 8.3 µM (PANC-1 cells; [14]): 61 ± 22%
viability at 8.3 µM (PANC-1 cells; [15]): 61 ± 22%
viability at 25 µM (PANC-1 cells; [14]): 0%
viability at 25 µM (PANC-1 cells; [15]): 0%
IC50 (PANC-1 cells; Homo sapiens, PANC-1, 72 h, read-out: IC50 Value ± SEM PANC-1, 72 h treatment, best-fit values, n = 3): 8.2 ± 0.41 µM
viability at 0.7 µM (PANC-1 cells; Homo sapiens, PANC-1, 72 h, read-out: PANC-1 Cell viability (% of controll), 0.7 μM, 72 h, dose–response, individual replicates): 102%
viability at 1 µM (PANC-1 cells; Homo sapiens, PANC-1, 72 h, read-out: PANC-1 Cell viability (% of controll), 1 μM, 72 h, dose–response, individual replicates): 111%
viability at 1.5 µM (PANC-1 cells; Homo sapiens, PANC-1, 72 h, read-out: PANC-1 Cell viability (% of controll), 1.5 μM, 72 h, dose–response, individual replicates): 111%
viability at 2.3 µM (PANC-1 cells; Homo sapiens, PANC-1, 72 h, read-out: PANC-1 Cell viability (% of controll), 2.3 μM, 72 h, dose–response, individual replicates): 112%
viability at 3.4 µM (PANC-1 cells; Homo sapiens, PANC-1, 72 h, read-out: PANC-1 Cell viability (% of controll), 3.4 μM, 72 h, dose–response, individual replicates): 108%
viability at 5.1 µM (PANC-1 cells; Homo sapiens, PANC-1, 72 h, read-out: PANC-1 Cell viability (% of controll), 5.1 μM, 72 h, dose–response, individual replicates): 112%
viability at 7.7 µM (PANC-1 cells; Homo sapiens, PANC-1, 72 h, read-out: PANC-1 Cell viability (% of controll), 7.7 μM, 72 h, dose–response, individual replicates): 72%
viability at 17.3 µM (PANC-1 cells; Homo sapiens, PANC-1, 72 h, read-out: PANC-1 Cell viability (% of controll), 17.3 μM, 72 h, dose–response, individual replicates): 0%
viability at 26 µM (PANC-1 cells; Homo sapiens, PANC-1, 72 h, read-out: PANC-1 Cell viability (% of controll), 26 μM, 72 h, dose–response, individual replicates): 0%
IC50 (PANC-1 cells; Homo sapiens, PANC-1, read-out: PANC-1 IC50 values, Mean, mean of independently fitted replicate IC50 values (Supplement S.6)): 8.19 µM
IC50 (PANC-1 cells; Homo sapiens, PANC-1, read-out: PANC-1 IC50 values, individual replicates n1-n3, IC50 independently determined for each replicate measurement (Supplement S.6)): 8.43 µM
Selectivity Index (SI) Fibroblast/PANC-1 (PANC-1 cells; ratio of mean best-fit IC50 for primary fibroblasts and best-fit IC50 for PANC-1): 1.3
IC50 (PANC-1 cells; read-out: PANC-1 IC50 values, individual replicates n1-n3, IC50 independently determined for each replicate measurement (Supplement S.6)): 7.99 µM and 8.15 µM
viability at 25 µM (PANC-1 and Fadu cells): 0 to 1%
